One may read the IC50 as the concentration needed to halve the response being measured. Read a low IC50 as inhibition by little substance.

22 compounds from ChEMBL document CHEMBL1153822, “Conformationally constrained peptidomimetic inhibitors of signal transducer and activator of transcription. 3: Evaluation and molecular modeling” (J Med Chem, 2009) can be followed below.

The target in the experiment is Signal transducer and activator of transcription 3 (Homo sapiens, UniProt P40763). As to the kind of experiment: Inhibition of Stat3 by fluorescence polarization assay. (In fluorescence polarisation assays a small probe gives low polarisation when free and higher when bound to something large.)

Each structure is given as a SMILES string. Numbered stars: 1 amine (or outer) side, 2 acyl side, 3 side chain; on linkers, the order of the positions; unused ones are H or OH. Square brackets hold non-standard residues; d marks the D form. Peptide text beside a SMILES is read from it. * marks the point of attachment. X4 = O=C([C@@H]1Cc2ccc(OP(=O)(O)O)cc2CN1[*:1])[*:2]; pY = N[C@@H](Cc1ccc(OP(=O)(O)O)cc1)C(=O)O; X7 = O=C(Cc1c[nH]c2ccc(OP(=O)(O)O)cc12)*; aThr = C[C@H](O)[C@H](N)C(=O)O

Sequence of Signal transducer and activator of transcription 3 (P40763 whole entry): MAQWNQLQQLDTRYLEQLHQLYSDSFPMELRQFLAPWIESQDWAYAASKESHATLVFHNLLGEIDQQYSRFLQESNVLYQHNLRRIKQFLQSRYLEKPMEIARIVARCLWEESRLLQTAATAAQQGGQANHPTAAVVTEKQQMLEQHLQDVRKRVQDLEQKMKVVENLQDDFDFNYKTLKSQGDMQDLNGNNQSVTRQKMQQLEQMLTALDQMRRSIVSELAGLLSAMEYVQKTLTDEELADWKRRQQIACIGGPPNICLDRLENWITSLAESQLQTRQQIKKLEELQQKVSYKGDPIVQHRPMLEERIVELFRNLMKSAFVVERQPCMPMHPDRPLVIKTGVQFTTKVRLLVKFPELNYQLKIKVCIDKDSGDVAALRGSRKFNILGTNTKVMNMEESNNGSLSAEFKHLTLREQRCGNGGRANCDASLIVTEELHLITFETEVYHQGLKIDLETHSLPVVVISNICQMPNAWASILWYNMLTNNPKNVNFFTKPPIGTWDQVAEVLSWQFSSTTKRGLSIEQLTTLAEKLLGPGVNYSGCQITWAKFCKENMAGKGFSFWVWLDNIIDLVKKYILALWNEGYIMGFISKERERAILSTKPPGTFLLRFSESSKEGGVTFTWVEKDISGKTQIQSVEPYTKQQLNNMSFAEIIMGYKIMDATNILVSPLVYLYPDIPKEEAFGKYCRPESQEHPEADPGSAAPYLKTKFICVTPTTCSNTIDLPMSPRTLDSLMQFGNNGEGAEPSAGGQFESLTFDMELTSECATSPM

`NC(=O)CC[C@H](NC(=O)[C@@H]1Cc2cccc3c2N1C(=O)[C@@H](NC(=O)/C=C/c1ccc(OP(=O)(O)O)cc1)C=C3)C(=O)NCc1ccccc1` had an IC50 of 195 nM. That is a sub-micromolar value.
`CNC(=O)[C@H](CCC(N)=O)NC(=O)[C@@H]1Cc2cccc3c2N1C(=O)[C@@H](NC(=O)/C=C/c1ccc(OP(=O)(O)O)cc1)CC3` returned an IC50 of 269 nM.
With `O=C(O)CCCNC(=O)[C@@H]1Cc2cccc3c2N1C(=O)[C@@H](NC(=O)/C=C/c1ccc(OP(=O)(O)O)cc1)CC3` the figure was 815 nM; with `C[C@H](NC(=O)[C@@H]1Cc2cccc3c2N1C(=O)[C@@H](NC(=O)/C=C/c1ccc(OP(=O)(O)O)cc1)CC3)C(N)=O`, 25100 nM.
As for `NC(=O)CC[C@H](NC(=O)[C@H]1CC[C@H]2CC[C@H](NC(=O)/C=C/c3ccc(OP(=O)(O)O)cc3)C(=O)N21)C(=O)NCc1ccccc1`, the figure is 59800 nM.
`NC(=O)CC[C@H](NC(=O)[C@@H]1CC[C@H]2CC[C@H](NC(=O)/C=C/c3ccc(OP(=O)(O)O)cc3)C(=O)N21)C(=O)NCc1ccccc1` gave an IC50 of 45700 nM. The IC50 values of the last two compounds are within 1.5-fold of each other.
`NC(=O)CC[C@H](NC(=O)[C@@H]1Cc2cccc3c2N1C(=O)[C@@H](NC(=O)c1cc2cc(OP(=O)(O)O)ccc2[nH]1)CC3)C(=O)NCc1ccccc1`: the 50% inhibitory concentration (IC50) was 190 nM. This IC50 lies about 240-fold lower than the previous one.
`NC(=O)CC[C@H](NC(=O)[C@@H]1Cc2cccc3c2N1C(=O)[C@@H](NC(=O)/C=C/c1ccc(OP(=O)(O)O)cc1)CC3)C(=O)O` gave an IC50 of 359 nM. This IC50 lies about 1.9-fold higher than the previous one.
The compound `CC(=O)N[C@@H](Cc1ccc(OP(=O)(O)O)cc1)C(=O)N[C@@H](CC(C)C)C(=O)N1CCC[C@H]1C(=O)N[C@@H](CCC(N)=O)C(=O)N[C@H](C(N)=O)[C@H](C)O` (Ac-[pY]LPQ[aThr]-NH2) registered an IC50 of 739 nM.
As for `CC(C)NC(=O)[C@H](CCC(N)=O)NC(=O)[C@@H]1Cc2cccc3c2N1C(=O)[C@@H](NC(=O)/C=C/c1ccc(OP(=O)(O)O)cc1)CC3`, the figure is 305 nM; as for `CC(=O)N1Cc2cc(OP(=O)(O)O)ccc2C[C@H]1C(=O)N[C@@H](CC(C)C)C(=O)N1CCC[C@H]1C(=O)N[C@@H](CCC(N)=O)C(=O)N[C@H](C(N)=O)[C@@H](C)O` (Ac-[X4]LPQT-NH2), greater than 100000 nM; as for `C[S+]([O-])CC[C@H](NC(=O)[C@@H]1Cc2cccc3c2N1C(=O)[C@@H](NC(=O)/C=C/c1ccc(OP(=O)(O)O)cc1)CC3)C(N)=O` (some centres not stated), 7600 nM.
With `CC(C)C[C@H](NC(=O)Cc1c[nH]c2ccc(OP(=O)(O)O)cc12)C(=O)N1CCC[C@H]1C(=O)N[C@@H](CCC(N)=O)C(=O)N[C@H](C(N)=O)[C@@H](C)O` (X7-LPQT-NH2) the figure was greater than 100000 nM.
Consider `CS(=O)(=O)CC[C@H](NC(=O)[C@@H]1Cc2cccc3c2N1C(=O)[C@@H](NC(=O)/C=C/c1ccc(OP(=O)(O)O)cc1)CC3)C(N)=O`, for which it took 7030 nM to reach half-maximal inhibition (IC50).
Consider `CC(C)C[C@H](NC(=O)/C=C/c1ccc(OP(=O)(O)O)cc1)C(=O)N1CCC[C@H]1C(=O)N[C@@H](CCC(N)=O)C(=O)NCc1ccccc1`, for which the IC50 was found to be 138 nM. This IC50 is about 51-fold lower than that of the compound before.
On to `NC(=O)[C@@H]1Cc2cccc3c2N1C(=O)[C@@H](NC(=O)/C=C/c1ccc(OP(=O)(O)O)cc1)CC3`, for which the IC50 was 35600 nM.
`NC(=O)CC[C@H](NC(=O)[C@@H]1CC[C@@H]2CC[C@H](NC(=O)/C=C/c3ccc(OP(=O)(O)O)cc3)C(=O)N21)C(=O)NCc1ccccc1` yielded an IC50 of 604 nM.
In the case of `NC(=O)C1CCN(C(=O)[C@@H]2Cc3cccc4c3N2C(=O)[C@@H](NC(=O)/C=C/c2ccc(OP(=O)(O)O)cc2)CC4)C1` (some centres not stated), the IC50 is 595 nM.
`NC(=O)CC[C@H](NC(=O)[C@@H]1Cc2cccc3c2N1C(=O)[C@@H](NC(=O)/C=C/c1ccc(OP(=O)(O)O)cc1)CC3)C(N)=O` showed an IC50 of 233 nM.
Regarding `CCCC[C@H](NC(=O)[C@@H]1Cc2cccc3c2N1C(=O)[C@@H](NC(=O)/C=C/c1ccc(OP(=O)(O)O)cc1)CC3)C(N)=O`, the midpoint of inhibition, the IC50, lay at 19200 nM.
In turn, `NC(=O)CC[C@H](NC(=O)[C@@H]1Cc2cccc3c2N1C(=O)[C@@H](NC(=O)/C=C/c1ccc(OP(=O)(O)O)cc1)CC3)C(=O)NCc1ccccc1` displayed an IC50 of 162 nM.
On to `COC(=O)[C@H](CCC(N)=O)NC(=O)[C@@H]1Cc2cccc3c2N1C(=O)[C@@H](NC(=O)/C=C/c1ccc(OP(=O)(O)O)cc1)CC3`, for which half-maximal inhibition (IC50) was put at 141 nM.
